# Reference: patent US20230277483A1, “COMPOSITIONS AND METHODS TO TREAT INFLAMMATION” (University of Iowa Research Foundation, priority 2022, published 2023)
# Tests used:
# 3T3-L1 = assay: TNF-induced inflammation in differentiated white adipocytes; assay type: cell-based, mouse; settings: 10 ng/ml TNF with 0.1 uM HCA, 24 hr
# Procedure: 3T3-L1 (CL-173-ATCC, PMID. 26451286) were grown in DMEM containing 10% fetal bovine serum (FBS) and 1% pen/strep. Cells were induced to differentiate 2 d after reaching confluence by supplementing growth media with 3 nM insulin (Humulin R, Lily, Humulin R U-500, 0002-8501-01), 0.25 nM dexamethasone (Sigma, D4902), 2 uM rosiglitazone (Sigma, R2408) and 0.5 mM 1-methyl-3-isobutyl-xanthine (Sigma, I5879). From day 3 until day 7, cells were maintained in growth media supplemented with 3 nM insulin after which the mature adipocytes were maintained in growth media. Cells were then incubated for 24 hr in the presence or absence of 10 ng/ml TNF (PeproTech, 315-01A) with or without 0.1 uM 6-Hydroxycaproic acid (HCA, Sigma, 515302).
# To determine the effects of HCA on adipose-mediated inflammation, 3T3-L1 cells were differentiated into white adipocytes and then exposed to the pro-inflammatory cytokine tumor necrosis factor alpha (TNFa).
# Pg = Pg attachment (early biofilm formation, colonization) on culture plates; assay type: cell-based, Porphyromonas gingivalis
# Procedure: (§1) Sg metabolites promote commensal bacterial proliferation and inhibit periodontopathogenic bacterial proliferation and colonization. Commensal bacteria, Sg, S. sanguinis (Ss, ATCC10556), S. mitis (Sm, ATCC49456) and S. oralis (So, ATCC 35037) were cultured in BHI medium. In addition, pathogenic bacteria, Pg was cultured using BHI and Tf (ATCC43037), and Td (ATCC 35405) were grown in Thioglycollate medium with vitamin K and Hemin in 90% N2, 5% H2, 5% CO2. The Sg metabolites were diluted using DMEM and added to the bacteria with the similar OD600 value. The same amount of DMEM was used as a control. During the exponential growth of bacteria, the OD600 value was measured to determine the proliferation. […] In addition, to determine the function of Sg metabolites on Pg colonization, Pg were inoculated in 24-well plates containing BHI or BHI supplemented with DMEM or Sg metabolites. […]
# (§2) HCA promotes proliferation of health related bacteria and inhibits proliferation and attachment of periodontopathogenic bacteria. […] The composition of the microbiomes was determined by amplifying the V3 and V4 regions of the 16S rRNA genes. Raw data in FASTQ format were filtered and denoised using DADA2 (Divisive Amplicon Denoising Algorithm) to generate amplicon sequence variants (ASV) or operational taxonomical units (OTUs) that were then analyzed by QIIME2.
# C57BL/6J mice = assay: Pg-LPS gingival injection mouse model of periodontal inflammation; assay type: in vivo; settings: 100 μl of HCA at 0.5 μM I.P. three times a week, 3 weeks
# [1] = test system: S. oralis (So, ATCC 35037); assay: Bacterial proliferation measured by OD600; assay type: cell-based, Streptococcus oralis; settings: HCA at 0.1 μM; aerobic culture
# Procedure: as §1, §2
# [2] = test system: oral and fecal microbiomes of obese mice; assay: Oral and fecal microbiome composition (16S rRNA) in DIO mice; assay type: in vivo, mouse; settings: 100 μl of HCA at 0.2 and 0.5 μM I.P. three times a week for 3 weeks
# Procedure: (§3) HCA promotes proliferation of health related bacteria and inhibits proliferation and attachment of periodontopathogenic bacteria. Promoting the growth of health-related commensal bacteria while inhibiting proliferation and attachment of pathogenic bacteria may be effective at preventing or treating periodontal inflammation. To determine if HCA has an effect on the growth properties of commensal bacteria and periodontopathogens, HCA at different concentrations was added to aerobic culture of S. mitis and S. oralis and anaerobic culture of T. denticola as described in our published manuscript (see detail in Shu et al, Journal of Periodontology, 2022). FIGS. 18A-C summarize the functions of HCA on the proliferation of specific commensal and pathogenic bacteria. […] Furthermore, the function of HCA on P. gingivalis attachment, a key parameter of adhesion and biofilm formation by periodontopathogenic bacteria, was investigated. […] The composition of the microbiomes was determined by amplifying the V3 and V4 regions of the 16S rRNA genes. Raw data in FASTQ format were filtered and denoised using DADA2 (Divisive Amplicon Denoising Algorithm) to generate amplicon sequence variants (ASV) or operational taxonomical units (OTUs) that were then analyzed by QIIME2.
# HGF = assay: Anti-inflammatory miR expression after Pg-LPS challenge; assay type: cell-based, human; settings: 24 hours after Pg-LPS challenge
# Procedure: FIGS. 11A-11B. Sg metabolites upregulate anti-inflammatory miRs in human macrophages and HGF. A-B: Relative transcript changes of miR-200c, 146a, and 21 in HGF (A) and human MDM (B) treated with AICAR, MA, HCA, and HPLA 24 hours after Pg-LPS challenge; performed in duplicate.
# Pg (ATCC 49417) = assay: Pg proliferation measured by OD600 under HCA; assay type: cell-based, Porphyromonas gingivalis; settings: HCA at 0.1 and 10 μM; after 48 and 72 hrs vs untreated controls
# Procedure: Pg (ATCC 49417), a key pathogen of periodontitis, was cultured at 24 well-plates with BHI medium at 90% N2, 5% H2, 5% CO2. HCA at 0.1 and 10 μM was applied.
# Td (ATCC 35405) = assay: Bacterial proliferation measured by OD600; assay type: cell-based, Treponema denticola; settings: HCA at 0.1 μM; anaerobic culture
# Procedure: as §1, §2
# [3] = test system: human monocyte-derived macrophages (MDM); assay: MTT toxicity assay; assay type: cell-based; settings: HCA from 0.1 to 50 μM; 24 and 48 hours
# Procedure: as §3
smiles,measurement,setting,value
"O=C(O)CCCCCO [HCA, 6-hydroxycaproic acid]",TNF-induced IL-6 secretion,3T3-L1,significantly reduced
same,attachment of P. gingivalis,Pg; HCA at 0.01 μM,less of an effect
same,attachment of P. gingivalis,"Pg; HCA at 0.05 μM vs untreated control, optical density",significantly reduced
same,serum IL-1β production (ELISA),C57BL/6J mice,significantly reduced
same,gingival IL-1β expression (qRT-PCR),C57BL/6J mice; Pg-LPS twice a week,suppressing gingival IL-1β expression
same,proliferation of S. oralis,[1],improve proliferation
same,effect on composition of the microbiomes,[2],dose dependent
same,representation of Streptococcus danieliae and other unclassified streptococci in the oral microbiome,[2],large increases
same,"anti-inflammatory miRs (miR-200c, 146a, and 21)",HGF,upregulate
same,OD600 value of Pg,Pg (ATCC 49417),significantly reduced
same,proliferation of T. denticola,Td (ATCC 35405),significantly inhibits
same,toxicity (MTT assay),[3],No toxicity
